Assay results as given in ChEMBL document CHEMBL3044919 (Med Chem Res, 2005).

Legend:
[1] = biological target: Sigma non-opioid intracellular receptor 1 (Cavia porcellus, UniProt Q60492); test: Displacement of [3H](+)pentazocine from sigma-1 receptor in Cavia porcellus (guinea pig) brain membranes; design: species or system Membrane
[2] = Displacement of [3H]DTG from sigma-1 receptor in Cavia porcellus (guinea pig) brain membranes; design: species or system Membrane
[3] = organism: Cavia porcellus; test: Selectivity ratio of Ki for sigma-2 receptor in Cavia porcellus (guinea pig) brain membranes to Ki for sigma-1 receptor in Cavia porcellus (guinea pig) brain membranes
[4] = biological target: Kappa-type opioid receptor (Homo sapiens, UniProt P41145); test: Binding affinity to Kappa opioid receptor (unknown origin)
Chain of Kappa-type opioid receptor (P41145 whole entry): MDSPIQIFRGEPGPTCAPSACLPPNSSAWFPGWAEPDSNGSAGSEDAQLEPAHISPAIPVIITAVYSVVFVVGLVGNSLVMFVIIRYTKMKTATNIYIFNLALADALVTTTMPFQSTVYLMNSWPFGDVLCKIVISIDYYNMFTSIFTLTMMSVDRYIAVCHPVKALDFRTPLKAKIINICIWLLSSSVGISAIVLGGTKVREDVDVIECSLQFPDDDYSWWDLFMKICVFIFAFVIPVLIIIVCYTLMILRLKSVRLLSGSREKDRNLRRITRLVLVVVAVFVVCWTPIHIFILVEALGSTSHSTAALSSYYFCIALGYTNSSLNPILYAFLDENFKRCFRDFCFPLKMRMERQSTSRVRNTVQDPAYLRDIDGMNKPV

[5] = biological target: Histamine H1 receptor (Homo sapiens, UniProt P35367); test: Binding affinity to histamine H1 (unknown origin)
Chain of Histamine H1 receptor (P35367 whole entry): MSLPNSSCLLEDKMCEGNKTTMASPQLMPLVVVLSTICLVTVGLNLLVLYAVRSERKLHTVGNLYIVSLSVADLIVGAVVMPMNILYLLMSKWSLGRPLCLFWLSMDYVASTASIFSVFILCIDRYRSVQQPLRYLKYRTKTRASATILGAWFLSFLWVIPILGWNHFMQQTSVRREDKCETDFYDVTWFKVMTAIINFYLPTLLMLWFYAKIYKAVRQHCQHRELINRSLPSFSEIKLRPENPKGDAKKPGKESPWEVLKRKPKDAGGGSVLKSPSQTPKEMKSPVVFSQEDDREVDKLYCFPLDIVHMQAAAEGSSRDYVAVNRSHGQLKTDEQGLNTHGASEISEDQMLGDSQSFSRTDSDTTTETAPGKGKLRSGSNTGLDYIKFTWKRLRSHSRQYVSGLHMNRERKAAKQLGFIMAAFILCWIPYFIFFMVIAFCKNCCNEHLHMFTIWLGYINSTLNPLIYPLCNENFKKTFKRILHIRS

[6] = biological target: T1, Adrenergic receptor alpha-2 (Homo sapiens, UniProt P08913+P18825+P18089); test: Binding affinity to alpha2 receptor (unknown origin)
T1 sequence (P08913 whole entry): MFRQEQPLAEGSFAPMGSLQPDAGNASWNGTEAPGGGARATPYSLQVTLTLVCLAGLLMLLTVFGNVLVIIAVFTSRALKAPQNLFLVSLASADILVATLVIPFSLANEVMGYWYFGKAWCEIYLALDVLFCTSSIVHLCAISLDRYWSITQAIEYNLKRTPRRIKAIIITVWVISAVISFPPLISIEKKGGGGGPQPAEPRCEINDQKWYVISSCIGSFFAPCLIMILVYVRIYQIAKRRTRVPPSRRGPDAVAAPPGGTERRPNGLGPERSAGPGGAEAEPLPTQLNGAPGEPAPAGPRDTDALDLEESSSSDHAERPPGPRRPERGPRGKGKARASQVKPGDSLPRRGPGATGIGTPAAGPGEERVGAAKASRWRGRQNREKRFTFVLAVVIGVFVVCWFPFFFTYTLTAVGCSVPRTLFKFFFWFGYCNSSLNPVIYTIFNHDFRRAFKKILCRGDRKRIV
T1 sequence (P18825 whole entry): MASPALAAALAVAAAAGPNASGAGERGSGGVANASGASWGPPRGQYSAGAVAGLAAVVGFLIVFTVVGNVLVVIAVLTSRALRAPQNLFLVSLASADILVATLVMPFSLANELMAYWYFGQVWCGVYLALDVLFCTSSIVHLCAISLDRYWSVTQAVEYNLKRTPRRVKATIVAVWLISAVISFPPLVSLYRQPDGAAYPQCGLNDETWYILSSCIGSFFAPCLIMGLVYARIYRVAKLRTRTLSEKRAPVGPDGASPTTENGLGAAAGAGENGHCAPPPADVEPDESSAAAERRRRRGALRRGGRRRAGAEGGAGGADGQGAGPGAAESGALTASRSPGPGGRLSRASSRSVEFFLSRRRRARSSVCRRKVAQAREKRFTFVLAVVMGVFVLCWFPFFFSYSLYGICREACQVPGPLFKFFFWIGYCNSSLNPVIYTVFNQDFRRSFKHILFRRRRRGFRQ
T1 sequence (P18089 whole entry): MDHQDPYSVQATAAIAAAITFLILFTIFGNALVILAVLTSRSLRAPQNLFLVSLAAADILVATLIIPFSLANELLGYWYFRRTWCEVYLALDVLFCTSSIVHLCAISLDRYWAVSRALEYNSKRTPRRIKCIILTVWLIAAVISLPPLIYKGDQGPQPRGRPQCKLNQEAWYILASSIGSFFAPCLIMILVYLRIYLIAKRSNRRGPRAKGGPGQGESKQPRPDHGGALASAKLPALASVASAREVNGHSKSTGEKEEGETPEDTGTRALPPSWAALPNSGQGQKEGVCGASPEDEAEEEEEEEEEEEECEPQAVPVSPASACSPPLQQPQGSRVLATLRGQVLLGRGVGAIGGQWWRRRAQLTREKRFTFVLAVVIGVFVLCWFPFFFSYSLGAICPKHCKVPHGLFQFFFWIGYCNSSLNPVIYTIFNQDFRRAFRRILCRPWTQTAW

Chain of Sigma non-opioid intracellular receptor 1 (Q60492 whole entry): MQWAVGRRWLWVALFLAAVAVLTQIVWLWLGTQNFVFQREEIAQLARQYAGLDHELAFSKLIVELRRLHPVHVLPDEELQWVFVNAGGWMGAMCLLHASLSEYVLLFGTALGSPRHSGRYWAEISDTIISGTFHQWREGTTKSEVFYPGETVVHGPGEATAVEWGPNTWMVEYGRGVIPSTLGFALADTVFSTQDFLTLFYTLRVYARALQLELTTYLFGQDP

Ki [1]	Ki [2]	Ratio Ki [3]	Ki [4]	Compound	Ki [5]	Ki [6]
> 1000 nM	> 1000 nM	–	–	O=C(c1ccc2c(c1)sc(=O)n2CCN1CCCCC1)C1CC1	–	–
1.26 nM	–	2	418 nM	CN(C[C@@H]1C[C@@]1(CO)c1ccccc1)C12CC3CC(CC(C3)C1)C2 (relative stereo)	–	–
3.7 nM	> 1000 nM	–	–	CCCCc1ccc2c(c1)sc(=O)n2CCN1CCCCC1	–	–
0.6 nM	18 nM	30	–	CCCc1ccc2c(c1)sc(=O)n2CCN1CCCCC1	–	–
1.4 nM	> 1000 nM	–	–	CCCc1ccc2c(c1)sc(=O)n2CCN1C[C@]2(C)CCC[C@]2(C)C1	–	–
1.2 nM	> 1000 nM	> 1000	–	CCCc1ccc2c(c1)sc(=O)n2CCCN1CCCCC1	–	–
2.3 nM	202 nM	87	–	CCC(=O)c1ccc2c(c1)sc(=O)n2CCCN1CCCCC1	–	–
8.5 nM	496 nM	58	–	CCC(=O)c1ccc2c(c1)oc(=O)n2CCCN1CCCCC1	–	–
2.9 nM	13 nM	4.5	–	CCCc1ccc2c(c1)sc(=O)n2CCCCN1CCCCC1	–	–

Compound	Ki [1]	Ki [2]	Ratio Ki [3]	Ki [4]	Ki [5]	Ki [6]
CCCc1ccc2c(c1)OCC(=O)N2CCN1CCCCC1	28 nM	> 1000 nM	–	–	–	–
CCCc1ccc2c(c1)sc(=O)n2CCN1CCCCCC1	0.56 nM	> 1000 nM	> 1000	–	311 nM	205 nM
